Results from US20170283458A1, “COLLAGEN-BINDING SYNTHETIC PEPTIDOGLYCANS FOR WOUND HEALING” (Symic Biomedical, Inc., priority 2009, published 2017).
Ends that are not written are not given here.

Experiments:
[1] = test system: collagen; experiment: SILY binding to collagen (Biacore surface plasmon resonance)
Experimental: Biacore studies were performed on a Biacore 2000 using a CM-3 chip (Biacore, Inc., Piscataway, N.J.). The CM-3 chip is coated with covalently attached carboxymethylated dextran, which allows for attachment of the substrate collagen via free amine groups. Flow cells (FCs) 1 and 2 were used, with FC-1 as the reference cell and FC-2 as the collagen immobilized cell. Each FC was activated with EDC-NHS, and 1500RU of collagen was immobilized on FC-2 by flowing 1mg/mL collagen in sodium acetate, pH 4, buffer at 5 μL/min for 10 min. Unreacted NHS-ester sites were capped with ethanolamine; the control FC-1 was activated and capped with ethanolamin.
To determine peptide binding affinity, SILY was dissolved in 1× HBS-EP buffer (Biacore) at varying concentrations from 100 uM to 1.5 μm in 2-fold dilutions. […] The first 10 injections were buffer injections, which help to prime the system, followed by randomized sample injections, run in triplicate. Analysis was performed using BIAevaluation software (Biacore).

[2] = target: T1, collagen I (Bos taurus, UniProt P02453+P02465); experiment: Cryo-SEM measurements on collagen I, fibril diameter; assay type: biochemical; details: 4 mg/mL collagen, 10:1 collagen:treatment, cryo-SEM 20,000×
T1 construct: purchased Inamed, Freemont, Calif; Nutragen
T1 sequence (P02453 162-1217 limits assumed): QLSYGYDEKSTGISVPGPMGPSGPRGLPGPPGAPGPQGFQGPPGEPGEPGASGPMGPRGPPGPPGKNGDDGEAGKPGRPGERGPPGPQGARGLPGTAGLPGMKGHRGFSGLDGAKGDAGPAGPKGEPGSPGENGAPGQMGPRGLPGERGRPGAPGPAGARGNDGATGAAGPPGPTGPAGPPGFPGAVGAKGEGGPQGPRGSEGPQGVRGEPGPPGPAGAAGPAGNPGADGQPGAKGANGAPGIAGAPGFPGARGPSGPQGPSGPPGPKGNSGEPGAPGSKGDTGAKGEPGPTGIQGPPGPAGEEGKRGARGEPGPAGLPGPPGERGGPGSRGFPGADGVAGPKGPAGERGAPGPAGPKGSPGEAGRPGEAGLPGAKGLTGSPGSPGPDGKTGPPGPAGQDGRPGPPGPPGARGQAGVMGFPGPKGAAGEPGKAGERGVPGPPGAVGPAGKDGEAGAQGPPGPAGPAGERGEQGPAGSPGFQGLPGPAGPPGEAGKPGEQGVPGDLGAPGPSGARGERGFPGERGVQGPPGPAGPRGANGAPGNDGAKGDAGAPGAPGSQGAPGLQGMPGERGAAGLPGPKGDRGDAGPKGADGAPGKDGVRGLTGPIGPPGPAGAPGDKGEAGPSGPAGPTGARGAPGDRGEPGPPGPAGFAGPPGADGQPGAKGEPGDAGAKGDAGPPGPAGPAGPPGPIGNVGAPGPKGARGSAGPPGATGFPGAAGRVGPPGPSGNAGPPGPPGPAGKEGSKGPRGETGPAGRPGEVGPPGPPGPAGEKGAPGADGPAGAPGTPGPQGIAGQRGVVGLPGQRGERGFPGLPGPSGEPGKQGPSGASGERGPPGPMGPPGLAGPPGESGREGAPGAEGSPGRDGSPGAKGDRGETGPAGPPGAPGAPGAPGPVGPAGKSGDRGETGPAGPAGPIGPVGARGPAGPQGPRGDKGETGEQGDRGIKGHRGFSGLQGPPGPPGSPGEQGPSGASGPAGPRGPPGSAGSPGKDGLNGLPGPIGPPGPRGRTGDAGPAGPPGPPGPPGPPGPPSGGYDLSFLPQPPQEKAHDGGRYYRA
T1 sequence (P02465 80-1117 limits assumed): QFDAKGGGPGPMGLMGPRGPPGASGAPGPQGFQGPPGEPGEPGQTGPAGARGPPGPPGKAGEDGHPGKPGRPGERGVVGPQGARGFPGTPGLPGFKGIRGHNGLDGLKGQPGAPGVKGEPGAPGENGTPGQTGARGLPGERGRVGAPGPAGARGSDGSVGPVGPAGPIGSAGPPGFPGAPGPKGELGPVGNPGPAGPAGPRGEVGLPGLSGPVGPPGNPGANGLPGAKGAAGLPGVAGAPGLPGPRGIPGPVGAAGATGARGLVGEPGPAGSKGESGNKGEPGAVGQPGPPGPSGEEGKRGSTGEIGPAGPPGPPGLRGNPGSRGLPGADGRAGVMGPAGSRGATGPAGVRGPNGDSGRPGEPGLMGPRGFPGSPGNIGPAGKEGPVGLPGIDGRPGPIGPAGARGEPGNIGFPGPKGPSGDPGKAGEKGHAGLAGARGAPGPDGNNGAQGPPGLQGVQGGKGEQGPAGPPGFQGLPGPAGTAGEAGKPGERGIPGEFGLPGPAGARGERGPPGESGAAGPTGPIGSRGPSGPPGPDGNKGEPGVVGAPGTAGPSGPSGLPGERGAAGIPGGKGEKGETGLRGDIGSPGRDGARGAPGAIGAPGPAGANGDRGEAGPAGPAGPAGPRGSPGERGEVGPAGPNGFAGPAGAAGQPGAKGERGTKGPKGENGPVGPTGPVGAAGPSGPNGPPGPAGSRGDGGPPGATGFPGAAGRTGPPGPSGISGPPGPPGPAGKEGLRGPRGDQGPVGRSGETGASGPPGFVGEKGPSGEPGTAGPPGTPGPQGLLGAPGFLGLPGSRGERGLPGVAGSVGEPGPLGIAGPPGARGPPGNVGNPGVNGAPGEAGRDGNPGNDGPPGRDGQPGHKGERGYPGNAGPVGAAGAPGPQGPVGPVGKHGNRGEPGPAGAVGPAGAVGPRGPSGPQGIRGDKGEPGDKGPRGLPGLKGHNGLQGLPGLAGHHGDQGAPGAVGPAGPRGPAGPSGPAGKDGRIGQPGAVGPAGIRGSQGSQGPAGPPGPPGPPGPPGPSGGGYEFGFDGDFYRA
Experimental: (§1) Gels were made with Nutragen collagen (Inamed, Freemont, Calif.) at a final concentration of 4 mg/mL collagen. Nutragen stock is 6.4 mg/mL in 10 mM HCl. Gel preparation was performed on ice, and fresh samples were made before each test. The collagen solution was adjusted to physiologic pH and salt concentration, by adding appropriate volumes of 10×PBS (phosphate buffered saline), 1×PBS, and 1M NaOH. For most experiments, samples of DS, decorin, DS-SILY, or DS-Dc13 were added at a 10:1 collagen:treatment molar ratio by a final 1×PBS addition (equal volumes across treatments) in which the test samples were dissolved at appropriate concentrations. In this way, samples are constantly kept at pH 7.4 and physiologic salt concentration. Collagen-alone samples received a 1×PBS addition with no sample dissolved. Fibrillogenesis will be induced by incubating neutralized collagen solutions at 37° C. overnight in a humidified chamber to avoid dehydration. Gel solutions with collagen:treatment molar ratios of other than 10:1 were prepared similarly.
Gels for cryo-SEM were formed, as in EXAMPLE 16, directly on the SEM stage and incubated at 37° C. overnight. The stages were then secured in a cryo-holder and plunged into liquid nitrogen slush. Samples were then transferred to a Gatan Alto 2500 pre-chamber cooled to −170° C. under vacuum. A free-break surface was created with a cooled scalpel, and each sample evaporated under sublimation conditions for 20 min. The sample was coated by platinum sputter coating for 120 s. Samples were transferred to the cryo-stage at −130° C. and regions with similar orientation were imaged for comparison across treatments. Analysis of the images was performed to determine the fibril diameter distribution, presented in histograms adjacent the corresponding image in FIG. 14, and average fibril diameter, FIG. 17 an 18;. Fibril diameter was calculated using ImageJ software (NIH) measuring individual fibrils by hand (drawing a line across fibrils and measuring its length after properly setting the scale). At least 45 independent fibril measurement were recorded for average fibril diameter calculations.

[3] = test system: Human aortic smooth muscle cells; experiment: Collagen remodeling: hydroxyproline content in medium of cell-seeded collagen gels; assay type: cell-based; details: vs collagen alone; cultures up to 30 days
Experimental: Following a method by Grassl, et al. (Grassl, et al., Journal of Biomedical Materials Research 2002, 60, (4), 607-612), which is herein incorporated in its entirety, collagen gels with or without synthetic PG mimics were formed as described in EXAMPLE 16. Human aortic smooth muscle cells (Cascade Biologics, Portland, Oreg.) were seeded within collagen gels by adding 4×10^6 cells/mL to the neutralized collagen solution prior to incubation. The cell-collagen solutions were pipetted into an 8-well Lab-Tek chamber slide and incubated in a humidified 37° C. and 5% CO2 incubator. After gelation, the cell-collagen gels will be covered with 1 mL Medium 231 as prescribed by Cascade. Every 3-4 days, the medium was removed from the samples and the hydroxyproline content measured by a standard hydroxyproline assay (Reddy, 1996).
To measure degraded collagen in the supernatant medium, the sample was lyophilized, the sample hydrolyzed in 2M NaOH at 120° C. for 20 min. After cooling, free hydroxyproline was oxidized by adding chloramine-T (Sigma) and reacting for 25 min at room temperature. Ehrlich's aldehyde reagent (Sigma) was added and allowed to react for 20 min at 65° C. and followed by reading the absorbance at 550 nm on an M-5 spectrophotometer (Molecular Devices). […] Cultures were incubated for up to 30 days and three samples of each treatment measured. […]

[4] = test system: Human dermal fibroblasts; experiment: TGF-β1 production by human dermal fibroblasts (ELISA); assay type: cell-based; details: 1.4 μM treatment, 48 hours
Experimental: Human dermal fibroblasts (Cascade Biologics) were seeded onto 96-well tissue culture polystyrene plates at a seeding density of 1.83×10^3 cells/well. Cells adhered overnight and cell medium was aspirated. 100 μL/well of cell medium containing a final concentration of 1.4 μM treatment delivered from a concentrated solution of treatment in 1×PBS was added to the cells. After 48 hours, cell medium was removed and frozen at −80 C until further testing. TGF-β1 was measured by ELISA using a kit and protocol from R&D Systems.

[5] = target: T2, collagen gels (Bos taurus, UniProt P02453+P02465); experiment: Cryo-SEM measurement of fibril density; assay type: biochemical; details: 10:1 molar ratio, cryo-SEM 10,000×
T2 construct: purchased Inamed, Freemont, Calif; Nutragen
T2 sequence (P02453 162-1217 limits assumed): as the sequence (P02453 162-1217 limits assumed) above
T2 sequence (P02465 80-1117 limits assumed): as the sequence (P02465 80-1117 limits assumed) above
Experimental: Collagen gels were formed in the presence of each additive at a 10:1 molar ratio, as described in EXAMPLE 16, directly on the SEM stage, processed, and imaged as described. Images at 10,000× were analyzed for fibril density calculations. Images were converted to 8-bit black and white, and threshold values for each image were determined using ImageJ software (NIH). The threshold was defined as the value where all visible fibrils are white, and all void space is black. The ratio of white to black area was calculated using MatLab software. All measurements were taken in triplicate and thresholds were determined by an observer blinded to the treatment.

[6] = target: T3, collagen type I gels (Bos taurus, UniProt P02453+P02465); experiment: Viscoelastic characterization of collagen type I gels (rheometer); assay type: biochemical; details: varying ratios of collagen to additive, vs untreated collagen
T3 construct: purchased Inamed, Freemont, Calif; Nutragen
T3 sequence (P02453 162-1217 limits assumed): as the sequence (P02453 162-1217 limits assumed) above
T3 sequence (P02465 80-1117 limits assumed): as the sequence (P02465 80-1117 limits assumed) above
Experimental: as §1, with “similarly. Collagen gels were prepared as described in EXAMPLE 16 and prior to heating, 200 μL of each treatment were pipetted onto the wettable surface of hydrophobically printed slides (Tekdon). The PTFE printing restricted gels to the 20 mm diameter wettable region. Gels were formed in a humidified incubator at 37° C. overnight prior to mechanical testing. […]” for “similarly.”

[7] = target: T4, collagen (Bos taurus, UniProt P02453+P02465); experiment: Fibrillogenesis turbidity assay (absorbance at 313 nm); assay type: biochemical
T4 construct: purchased Inamed, Freemont, Calif; Nutragen
T4 sequence (P02453 162-1217 limits assumed): as the sequence (P02453 162-1217 limits assumed) above
T4 sequence (P02465 80-1117 limits assumed): as the sequence (P02465 80-1117 limits assumed) above
Experimental: as §1
Collagen fibrillogenesis was monitored by measuring turbidity related absorbance at 313 nm providing information on rate of fibrillogenesis and fibril diameter. Gel solutions were prepared as described in EXAMPLE 16 (4 mg/mL collagen, 10:1 collagen:treatment, unless otherwise indicated) and 50 uL/well were added at 4° C. to a 384-well plate. The plate was kept at 4° C. for 4 hours before initiating fibril formation. A SpectraMax M5 at 37° C. was used to measure absorbance at 313 nm at 30 s intervals for 6 hours.
A fibrillogenesis assay as described for DS-SILY, EXAMPLE 19, performed with the conjugate DS-Dc13.

[8] = test system: Human coronary artery smooth muscle cells (HCA SMC); experiment: Gel compaction by smooth muscle cells in collagen gels; assay type: cell-based
Experimental: Human coronary artery smooth muscle cells (HCA SMC) (Cascade Biologics) were cultured in growth medium (Medium 231 supplemented with smooth muscle growth factor). Cells from passage 3 were used for all experiments. Differentiation medium (Medium 231 supplemented with 1% FBS and 1× pen/strep) was used for all experiments unless otherwise noted.
Collagen gels were prepared with each additive as described with the exception that the 1×PBS example addition was omitted to accommodate the addition of cells in media. After incubating on ice for 30 min, HCA SMCs in differentiation medium were added to the gel solutions to a final concentration of 1×10^6 cells/mL. Gels were formed in quadruplicate in 48-well non-tissue culture treated plates (Costar) for 6 hrs before adding 500 μL/well differentiation medium. Gels were freed from the well edges after 24 hrs. Medium was changed every 2-3 days and images for compaction were taken at the same time points using a Gel Doc System (Bio-Rad). The cross-sectional area of circular gels correlating to degree of compaction was determined using ImageJ software (NIH). Gels containing no cells were used as a negative control and cells in collagen gels absent additive were used as a positive control. […] By day 10 all gels had compacted to approximately 10% of the original gel area, and differences between additives were small.

[9] = test system: HCA SMCs; experiment: Measurement of elastin (Fastin assay) in cell-seeded collagen gels; assay type: cell-based, human; details: gels cultured for 10 days
Experimental: Collagen gels seeded with HCA SMCs were prepared as described in EXAMPLE 30. Differentiation medium was changed every three days and gels were cultured for 10 days. Collagen gels containing no cells were used as a control. Gels were rinsed in 1×PBS overnight to remove serum protein, and gels were tested for elastin content using the Fastin elastin assay per manufacturers protocol (Biocolor, County […].). Briefly, gels were solubilized in 0.25 M oxalic acid by incubating at 100° C. for 1 hr. Elastin was precipitated and samples were then centrifuged at 11,000×g for 10 min. The solubilized collagen supernatant was removed and the elastin pellet was stained by Fastin Dye Reagent for 90 min at room temperature. Samples were centrifuged at 11,000×g for 10 min and unbound dye in the supernatant was removed. Dye from the elastin pellets was released by the Fastin Dye Dissociation Reagent, and 100 μL samples were transferred to a 96-well plate (Costar). Absorbance was measured at 513 nm, and elastin content was calculated from an α-elastin standard curve.

Substance	reversibility of binding to collagen ([1]; association/disassociation curves, FIG. 2)	Kd ([1]; calculated from the on-off binding kinetics, collagen immobilized on CM-3 chip)	average fibril diameter [2]	collagen degradation measured by hydroxyproline content in cell medium [3]	TGF-β1 in cell medium [4]	fibril density (ratio of fibril containing area to void space) [5]	stiffness of collagen gel (storage modulus G') [6]	rate of fibrillogenesis ([7]; 4 mg/mL collagen, 10:1 collagen:treatment unless otherwise indicated)	fibrillogenesis and overall absorbance ([7]; 1:1 or 10:1 collagen to treatment, FIG. 12)	gel compaction at early time points ([8]; Days 3 and 5)	gel compaction ([8]; day 10)	elastin production [9]
RRANAALKAGELYKSILYGC	binds reversibly with collagen	1200 nM	significant decrease in average fibril diameter	greater collagen degradation compared to collagen alone	significantly decreased TGF-β1	significantly greater fibril density						
DS-Dc13: dermatan sulfate conjugated via PDPH to Dc13 peptide, molar ratio about 1 (SYIRIADTNITGC; also: dermatan sulfate conjugate via PDPH, molar ratio about 1, site not given here)			significant decrease in average fibril diameter			not significant compared to collagen	increase the stiffness of the resulting collagen gel over untreated collagen	decrease the rate of fibrillogenesis	delays fibrillogenesis and decreases overall absorbance in a dose-dependent manner	significantly compacted more than gels made of collagen alone or collagen with dermatan sulfate	slightly, but significantly, less compact than gels treated with decorin or collagen	significantly decreased elastin production over untreated collagen
dermatan sulfate [reference compound]					significantly decreased TGF-β1		increase the stiffness of the resulting collagen gel over untreated collagen					significantly decreased elastin production over untreated collagen
